Measured values published in US20230271770A1, “Anti-Viral Pharmaceutical Formulations Administered Via Devices for Lung Targeted Delivery” (priority 2020, published 2023).
Like-named read-outs stand apart in the source and are kept apart here.

Legend:
SARS-CoV-2 [1] = conditions: Reference [3], cited from earlier work
SARS-CoV-2 [2] = conditions: Reference [3]; read-out: EC 50, for SARS-Cov2, Treatment 24 hrs; cited from earlier work
SARS-CoV-2 [3] = conditions: Reference [4]; read-out: EC 50, for SARS-Cov2, Treatment 48 hrs; cited from earlier work
[4] = In-line Cascade Impactor (Andersen) evaluation, MDI actuator through elbow connection and ventilator tubing; assay type: physicochemical; design: Delivered <1.1 mcm / Delivered <4.7 mcm: unit not given here; conditions: Alveoli, in-Line Tube (55 cm), HCQB-e, connection w/inner channel, Ave, 5% EtOH, 200 mcg
Procedure: An example of a ventilator device, for example ventilator device 1700A, was tested and compared to a self-administrable, handheld MDI to determine the target site delivery efficiency in the ventilator circuit as compared to the MDI delivery efficiency without the ventilator circuit (e.g. no elbow connector or ventilator tubing).
Prime HCQ valve by discharging a predetermined number of actuations to waste. Discharge 10 actuations with actuator H004B-a into the cascade impaction sampling apparatus through an elbow connection w/inner channel and an in-line tubing (55 cm long).
Prime HCQ valve by discharging a predetermined number of actuations to waste. Discharge 10 actuations with actuator H004B-c into the cascade impaction sampling apparatus through an elbow connection with an inner channel and an in-line tubing (55 cm long).
Prime HCQ valve by discharging a predetermined number of actuations to waste. […]

Row | SMILES | EC50 (SARS-CoV-2 [1]; read-out: EC 50, for SARS-Cov2, Prophylactic Treatment 24 hrs) [µM] | EC50 (SARS-CoV-2 [1]; read-out: EC 50, for SARS-Cov2, Prophylactic Treatment 48 hrs) [µM] | EC50 (SARS-CoV-2 [2]) [µM] | EC50 (SARS-CoV-2 [3]) [µM] | Delivery Rate ([4]; <1.1 mcm) [%] | Delivered <1.1 mcm [4]
1 | CCN(CC)CCCC(C)Nc1ccnc2cc(Cl)ccc12 (stereo not shown) [CQ, chloroquine] | > 100 | 18 | 23.9 | 1.13 | – | –
2 | CCN(CCO)CCCC(C)Nc1ccnc2cc(Cl)ccc12 (stereo not shown) [HICQ Base] | – | – | – | – | 33.0 | 66.0
3 | NC(=O)c1ncn([C@@H]2O[C@H](CO)[C@@H](O)[C@H]2O)n1 [Ribavirin] | – | – | – | 106 | – | –
